Source: paper PMC7933091 (2021)

System: SC-34 (DNA, aptamer) ACCTTAAGTGGGGTTCGGGTGGAGTTTATGGGGT
Experiment: ITC, single-site model
Conditions: 20 mM NaCl, 0.5 mM MgCl2; 10 mM Tris, pH 7.4, 23 °C; same value in low-salt PBS

KD: ~ 300 nM
SMILES: CCC[C@H](C(=O)c1ccc2c(c1)OCO2)N1CCCC1
